Test results from patent publication US12123048B2, “Fluorinated 4′-alkylumbelliferyl a-D-glucopyranosides, biological sterilization indicators including the same and methods of using the same” (3M INNOVATIVE PROPERTIES COMPANY, priority 2018, dated 2024).

Assay: Measurement of enzyme substrate degradation (100° C. for 15 minutes) by fluorescence
Assay type: physicochemical
Conditions: no spores, read at 60° C.
Experimental: Luria-Bertani (LB) broth was prepared by dissolving tryptone (10 g/L), yeast extract (5 g/L), and NaCl (5 g/L) in deionized water. In the examples, 6′-fluoro-4′-methylumbelliferyl α-D-glucopyranoside (0.3 mg/mL) or 5′-fluoro-4′-methylumbelliferyl α-D-glucopyranoside (0.3 mg/mL) was added to the broth. In the comparative examples, 4′-methylumbelliferyl α-D-glucopyranoside (MUG) (0.3 mg/mL) or 6′,8′-Difluoro-4′-methylumbelliferyl α-D-glucopyranoside (0.3 mg/mL) was added to the broth. The pH of the broth was adjusted to either pH 6, pH 7, pH 8, or pH 9 using 0.1 N hydrochloric acid or 1N sodium hydroxide solutions. The broth was passed through a 0.22 micron filter prior to use.
(§1) An 800-microliter sample of LB broth (pH 6) containing 6′-fluoro-4′-methylumbelliferyl α-D-glucopyranoside (0.3 mg/mL) (enzyme substrate of Example 1) was added to a 1.5 mL microcentrifuge tube and the capped tube was placed in a heating block at 100° C. for 15 minutes. A metal block was placed on top of the tube to keep the cap sealed during heating. The sample was cooled to ambient temperature and then added to two wells (100 microliters per well) of a black 96-well microtiter plate with optically clear, flat bottom wells (NUNC #165301, Thermo Fisher Scientific). The top of the plate was covered with an optically clear sealing film (product #4311971, Applied Biosystems Corporation). The plate was warmed at 60° C. and shaken in a linear direction. Fluorescence readings (360 nm excitation/450 nm emission at 50% gain) were taken from the bottom of the plate. A reading was taken at an initial time point of 10 seconds and then at +1 minute intervals thereafter. A Synergy Neo2 fluorescence plate reader (BioTek Company) was used. In Table 5, the mean fluorescence values detected (RFU) at times of 10 seconds, +5 minutes, +10 minutes, and +30 minutes are reported.
as §1, with “7)” for “6)”, “6,” for “5,”
as §1, with “8)” for “6)”, “A Synergy Neo2 fluorescence plate reader (BioTek Company) was used. In Table 5, the mean fluorescence values detected (RFU) at times of 10 seconds, +5 minutes, +10 minutes, and +30 minutes are reported.” left out

| Compound | MEASURED FLUORESCENCE, RFU 10 sec (pH 6 LB broth) | MEASURED FLUORESCENCE, RFU +5 min (pH 6 LB broth) | MEASURED FLUORESCENCE, RFU +10 min (pH 6 LB broth) | MEASURED FLUORESCENCE, RFU +30 min (pH 6 LB broth) | MEASURED FLUORESCENCE, RFU 10 sec (pH 7 LB broth) [RFU] | MEASURED FLUORESCENCE, RFU +5 min (pH 7 LB broth) [RFU] | MEASURED FLUORESCENCE, RFU +10 min (pH 7 LB broth) [RFU] | MEASURED FLUORESCENCE, RFU +30 min (pH 7 LB broth) [RFU] | MEASURED FLUORESCENCE, RFU 10 sec (pH 8 LB broth) [RFU] | MEASURED FLUORESCENCE, RFU +5 min (pH 8 LB broth) [RFU] | MEASURED FLUORESCENCE, RFU +10 min (pH 8 LB broth) [RFU] | MEASURED FLUORESCENCE, RFU +30 min (pH 8 LB broth) [RFU] | MEASURED FLUORESCENCE, RFU 10 sec (pH 9 LB broth) [RFU] | MEASURED FLUORESCENCE, RFU +5 min (pH 9 LB broth) [RFU] | MEASURED FLUORESCENCE, RFU +10 min (pH 9 LB broth) [RFU] | MEASURED FLUORESCENCE, RFU +30 min (pH 9 LB broth) [RFU] |
| --- | --- | --- | --- | --- | --- | --- | --- | --- | --- | --- | --- | --- | --- | --- | --- | --- |
| Cc1cc(=O)oc2cc(O[C@H]3O[C@H](CO)[C@@H](O)[C@H](O)[C@H]3O)c(F)cc12 [Example 1, 6′-Fluoro-4′-methylumbelliferyl α-D-glucopyranoside] | 1108 RFU | 1096 RFU | 1040 RFU | 948 RFU | 1209 | 1183 | 1130 | 1037 | 1145 | 1130 | 1092 | 1026 | 1449 | 1437 | 1388 | 1330 |
| Cc1cc(=O)oc2cc(O[C@H]3O[C@H](CO)[C@@H](O)[C@H](O)[C@H]3O)cc(F)c12 [Example 2, 5′-Fluoro-4′-methylumbelliferyl α-D-glucopyranoside] | 933 RFU | 852 RFU | 805 RFU | 758 RFU | 831 | 777 | 733 | 673 | 748 | 705 | 658 | 579 | 675 | 625 | 584 | 530 |
| Cc1cc(=O)oc2c(F)c(O[C@H]3O[C@H](CO)[C@@H](O)[C@H](O)[C@H]3O)c(F)cc12 [Comparative Example A, 6′,8′-Difluoro-4′-methylumbelliferyl α-D-glucopyranoside] | 10,605 RFU | 10,851 RFU | 10,748 RFU | 10,663 RFU | 12986 | 13409 | 13403 | 13283 | 14015 | 14483 | 14494 | 14331 | 18584 | 19052 | 18990 | 18683 |
| Cc1cc(=O)oc2cc(O[C@H]3O[C@H](CO)[C@@H](O)[C@H](O)[C@H]3O)ccc12 [MUG, 4′-methylumbelliferyl-α-D-glucopyranoside] | 967 RFU | 909 RFU | 852 RFU | 782 RFU | 823 | 790 | 745 | 670 | 714 | 685 | 643 | 567 | 654 | 622 | 575 | 500 |
